Assay results taken from PubChem BioAssay AID248 (DTP/NCI, 2004).
Several values for one entry are separate records, joined by “and”; a condition that tells them apart may be missing. Equal values may be shown once. Toxic doses and inconclusive results are not listed. Rule as the data show it: active = T/C of 150% or more; inactive = T/C below 125%.

Test system: L1210 leukemia ip in BDF1 mice, survival T/C
Assay: NCI In Vivo Anticancer Drug Screen. Data for tumor model L1210 Leukemia (intraperitoneal) in B6D2F1 (BDF1) mice
Settings: endpoint: mean survival time, higher = longer survival
How it was run: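 Mice bearing the transplanted tumor received compound or vehicle. Survival of the treated group was divided by that of the vehicle-treated control group to give the ratio.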

[1] = dose: 100.0 mg/kg/injection, schedule: Q04DX002 (ip), vehicle: saline
[2] = dose: 50.0 mg/kg/injection, schedule: Q01DX009 (ip), vehicle: Klucel (hydroxypropylcellulose) (HPC)
[3] = dose: 100.0 mg/kg/injection, schedule: Q01DX009 (ip), vehicle: Klucel (hydroxypropylcellulose) (HPC)
[4] = dose: 200.0 mg/kg/injection, schedule: Q01DX009 (ip), vehicle: Klucel (hydroxypropylcellulose) (HPC)
[5] = dose: 100.0 mg/kg/injection, schedule: Q01DX001 (ip), vehicle: carboxymethylcellulose (CMC)
[6] = dose: 200.0 mg/kg/injection, schedule: Q01DX001 (ip), vehicle: carboxymethylcellulose (CMC)
[7] = dose: 400.0 mg/kg/injection, schedule: Q01DX001 (ip), vehicle: carboxymethylcellulose (CMC)
[8] = dose: 100.0 mg/kg/injection, schedule: Q04DX003 (ip), vehicle: saline
[9] = dose: 400.0 mg/kg/injection, schedule: Q01DX009 (ip), vehicle: Klucel (hydroxypropylcellulose) (HPC)
[10] = dose: 100.0 mg/kg/injection, schedule: Q04DX003 (ip), vehicle: Klucel (hydroxypropylcellulose) (HPC)
[11] = dose: 200.0 mg/kg/injection, schedule: Q04DX003 (ip), vehicle: Klucel (hydroxypropylcellulose) (HPC)
[12] = dose: 400.0 mg/kg/injection, schedule: Q04DX003 (ip), vehicle: Klucel (hydroxypropylcellulose) (HPC)
[13] = dose: 100.0 mg/kg/injection, schedule: Q04DX002 (ip), vehicle: Klucel (hydroxypropylcellulose) (HPC)
[14] = dose: 200.0 mg/kg/injection, schedule: Q04DX002 (ip), vehicle: Klucel (hydroxypropylcellulose) (HPC)
[15] = dose: 400.0 mg/kg/injection, schedule: Q04DX002 (ip), vehicle: Klucel (hydroxypropylcellulose) (HPC)

Measured: T/C

[O-][n+]1ccc(-c2ccccc2)cc1
inactive: [1] 107 % of control | dose: 200.0 mg/kg/injection, schedule: Q04DX002 (ip), vehicle: saline 96 % of control

O=C(O)CSc1c([N+](=O)[O-])cc(C(F)(F)F)cc1[N+](=O)[O-]
inactive: [2] 101 % of control | [3] 101 % of control | [4] 95 % of control

Nc1nc(N)c2[nH]c(CCNc3ccc(C(=O)O)cc3)nc2n1
inactive: dose: 6.25 mg/kg/injection, schedule: Q01DX001 (ip), vehicle: saline with Tween-80 96 % of control | dose: 12.5 mg/kg/injection, schedule: Q01DX001 (ip), vehicle: saline with Tween-80 92 % of control | dose: 25.0 mg/kg/injection, schedule: Q01DX001 (ip), vehicle: saline with Tween-80 94 % of control and 101 % of control | dose: 50.0 mg/kg/injection, schedule: Q01DX001 (ip), vehicle: saline with Tween-80 98 % of control | dose: 100.0 mg/kg/injection, schedule: Q01DX001 (ip), vehicle: saline with Tween-80 102 % of control

CC(=O)Nc1ccc2c(c1)-c1ccc(F)cc1C2
inactive: [5] 94 % of control | [6] 96 % of control | [7] 102 % of control

CC(OC(=O)CBr)C(C)OC(=O)CBr (centres undefined)
inactive: dose: 50.0 mg/kg/injection, schedule: Q01DX001 (sc), vehicle: carboxymethylcellulose (CMC) 98 % of control | dose: 100.0 mg/kg/injection, schedule: Q01DX001 (sc), vehicle: carboxymethylcellulose (CMC) 98 % of control | dose: 200.0 mg/kg/injection, schedule: Q01DX001 (sc), vehicle: carboxymethylcellulose (CMC) 95 % of control | dose: 400.0 mg/kg/injection, schedule: Q01DX001 (sc), vehicle: carboxymethylcellulose (CMC) 98 % of control

O=C1c2cc(Br)ccc2NC1(c1c[nH]c2ccccc12)c1c[nH]c2ccccc12
inactive: dose: 50.0 mg/kg/injection, schedule: Q01DX001 (ip), vehicle: saline 102 % of control | dose: 100.0 mg/kg/injection, schedule: Q01DX001 (ip), vehicle: saline 100 % of control | dose: 200.0 mg/kg/injection, schedule: Q01DX001 (ip), vehicle: saline 96 % of control | dose: 400.0 mg/kg/injection, schedule: Q01DX001 (ip), vehicle: saline 93 % of control

CCCCNC(C)C(=O)c1ccccc1 (centres undefined)
inactive: dose: 12.5 mg/kg/injection, schedule: Q04DX003 (ip), vehicle: saline 100 % of control | dose: 25.0 mg/kg/injection, schedule: Q01DX009 (ip), vehicle: saline 101 % of control | dose: 25.0 mg/kg/injection, schedule: Q04DX003 (ip), vehicle: saline 90 % of control | dose: 50.0 mg/kg/injection, schedule: Q01DX009 (ip), vehicle: saline 101 % of control | dose: 50.0 mg/kg/injection, schedule: Q04DX003 (ip), vehicle: saline 100 % of control | [8] 94 % of control

COc1cccc(N2C(=O)C3C(C2=O)C2(Cl)C(Cl)=C(Cl)C3(Cl)C2(Cl)Cl)c1 (centres undefined)
inactive: [3] 98 % of control | [4] 94 % of control | [9] 89 % of control

N=C(CN1CCCCC1)N1CCCCC1
inactive: [1] 104 % of control

O=C(O)c1cc([N+](=O)[O-])c(C(=O)O)c([N+](=O)[O-])c1
inactive: dose: 75.0 mg/kg/injection, schedule: Q01DX001 (ip), vehicle: other 94 % of control | dose: 150.0 mg/kg/injection, schedule: Q01DX001 (ip), vehicle: other 95 % of control | dose: 300.0 mg/kg/injection, schedule: Q01DX001 (ip), vehicle: other 96 % of control

O=C1CSC(=S)N1c1ccccc1
inactive: [5] 95 % of control | dose: 100.0 mg/kg/injection, schedule: Q04DX003 (ip), vehicle: saline with Tween-80 96 % of control | [6] 97 % of control | dose: 200.0 mg/kg/injection, schedule: Q04DX003 (ip), vehicle: saline with Tween-80 93 % of control | [7] 93 % of control | dose: 400.0 mg/kg/injection, schedule: Q04DX003 (ip), vehicle: saline with Tween-80 90 % of control

[Cl][Sb]([Cl])([c]1ccccc1)([c]1ccccc1)[c]1ccccc1
inactive: dose: 12.5 mg/kg/injection, schedule: Q01DX009 (ip), vehicle: Klucel (hydroxypropylcellulose) (HPC) 95 % of control | dose: 25.0 mg/kg/injection, schedule: Q01DX009 (ip), vehicle: Klucel (hydroxypropylcellulose) (HPC) 93 % of control | dose: 25.0 mg/kg/injection, schedule: Q04DX002 (ip), vehicle: saline with Tween-80 93 % of control | dose: 50.0 mg/kg/injection, schedule: Q01DX001 (ip), vehicle: carboxymethylcellulose (CMC) 96 % of control | [2] 102 % of control and 91 % of control | dose: 50.0 mg/kg/injection, schedule: Q04DX002 (ip), vehicle: saline with Tween-80 97 % of control | [5] 96 % of control | dose: 100.0 mg/kg/injection, schedule: Q04DX002 (ip), vehicle: saline with Tween-80 101 % of control | [10] 102 % of control | [6] 114 % of control | [11] 96 % of control | [7] 93 % of control | [12] 105 % of control

CCOC(=O)CNc1ccc(C(F)(F)F)cc1
inactive: [13] 104 % of control | [14] 104 % of control | [15] 97 % of control

CCCNC(=O)Nc1ccc(S(N)(=O)=O)cc1
inactive: [13] 97 % of control | [14] 97 % of control | [15] 87 % of control

Cc1ccc(Cl)cc1NC(=O)C(C)Oc1ccccc1 (centres undefined)
inactive: [13] 89 % of control | [14] 89 % of control | [15] 92 % of control

CC(=O)Nc1cccc(OCc2ccc([N+](=O)[O-])cc2)c1
inactive: [2] 111 % of control | [3] 97 % of control | [4] 97 % of control

COc1ccc(O)c(/C=N\Nc2ccccc2)c1
inactive: [3] 89 % of control | [10] 96 % of control | [4] 91 % of control | [11] 94 % of control | [9] 86 % of control | [12] 92 % of control

CCOC(=O)CCC(NC(=O)c1ccc(I)cc1)C(=O)OCC (centres undefined)
inactive: [10] 94 % of control | [11] 96 % of control | [12] 102 % of control

CN(N=O)C(=O)Nc1ccccc1
inactive: dose: 6.25 mg/kg/injection, schedule: Q01DX Z (ip), vehicle: carboxymethylcellulose (CMC) 104 % of control | dose: 12.5 mg/kg/injection, schedule: Q01DX Z (ip), vehicle: carboxymethylcellulose (CMC) 112 % of control | dose: 25.0 mg/kg/injection, schedule: Q01DX Z (ip), vehicle: carboxymethylcellulose (CMC) 112 % of control | dose: 50.0 mg/kg/injection, schedule: Q01DX Z (ip), vehicle: carboxymethylcellulose (CMC) 122 % of control | dose: 100.0 mg/kg/injection, schedule: Q01DX Z (ip), vehicle: carboxymethylcellulose (CMC) 91 % of control | dose: 150.0 mg/kg/injection, schedule: Q01DX001 (ip), vehicle: carboxymethylcellulose (CMC) 112 % of control | dose: 600.0 mg/kg/injection, schedule: Q01DX001 (ip), vehicle: carboxymethylcellulose (CMC) 117 % of control

COc1ccccc1C1OCC(C)(C)N1C (centres undefined)
inactive: dose: 100.0 mg/kg/injection, schedule: Q01DX009 (ip), vehicle: saline with Tween-80 101 % of control | [10] 97 % of control and 105 % of control | dose: 200.0 mg/kg/injection, schedule: Q01DX009 (ip), vehicle: saline with Tween-80 95 % of control | [11] 95 % of control | dose: 400.0 mg/kg/injection, schedule: Q01DX009 (ip), vehicle: saline with Tween-80 102 % of control | [12] 94 % of control and 93 % of control

OC(COc1cccc2ccccc12)CN1CCCCC1 (centres undefined)
inactive: dose: 25.0 mg/kg/injection, schedule: Q04DX002 (ip), vehicle: Klucel (hydroxypropylcellulose) (HPC) 106 % of control | dose: 50.0 mg/kg/injection, schedule: Q04DX002 (ip), vehicle: Klucel (hydroxypropylcellulose) (HPC) 98 % of control | [13] 92 % of control

[N-]=C(CC(=O)c1ccccc1)c1ccccc1.[N-]=C(CC(=O)c1ccccc1)c1ccccc1.[Ni+2]
inactive: dose: 12.5 mg/kg/injection, schedule: Q04DX003 (ip), vehicle: Klucel (hydroxypropylcellulose) (HPC) 90 % of control | dose: 25.0 mg/kg/injection, schedule: Q04DX003 (ip), vehicle: Klucel (hydroxypropylcellulose) (HPC) 93 % of control | dose: 50.0 mg/kg/injection, schedule: Q04DX003 (ip), vehicle: Klucel (hydroxypropylcellulose) (HPC) 91 % of control | [10] 90 % of control | [11] 93 % of control | [12] 90 % of control

Cc1cccn2c(=O)cc(Cl)nc12
inactive: [5] 96 % of control | [6] 98 % of control

CCCC[N+](C)(C)CCOC(=O)C1C2CC3OC(=O)C1C3C2 (centres undefined)
inactive: [8] 95 % of control
